According to patent publication US20250170090A1, “METHOD FOR PREVENTING OR TREATING DISEASE OR DISORDER ASSOCIATED WITH ANTINEOPLASTIC AGENT” (ONQUALITY PHARMACEUTICALS CHINA LTD., priority 2022, published 2025):

Legend:
[1] = test system: human oral keratinocytes (HOK); assay: CCK-8 cell viability: alleviation of proliferative toxicity of anti-tumor agents on HOK (Table 8-2); format: cell-based; conditions: NO-NSAID 100 μM
Procedure: Experiments were conducted using various epithelial cells: Examples 47-51 used human immortalized keratinocytes (HaCaT) with corresponding results in Table 8-1; Examples 52-56 used human oral keratinocytes (HOK) with results in Table 8-2; Examples 57-61 used gastric epithelial cells (GES-1) with results in Table 8-3; Examples 62-66 used human intestinal epithelial cells (FHs 74 Int) with results in Table 8-4.
The cultured cells were digested the suspended, counted, and seed into a 96-well plate with 5,000-10,000 cells per well. The wells are divided into the following groups: blank control group, anti-tumor agent group, anti-tumor agent+NO-NSAID group, anti-tumor agent solvent group, NO-NSAID solvent control group. Wherein each well of each group contained a basic medium, and the final liquid volume contained in each well was about 100 μL. The grouping situation was as follows: • 1) Blank control group: no solution was added except normally replacing the medium; • 2) Anti-tumor agent group: added the anti-tumor agent solution (the final concentration was shown in Table 8-1 to Table 8-4, the solvent of the anti-tumor agent solution was DMSO); • 3) Anti-tumor agent+NO-NSAID group: added the anti-tumor agent solution and the NO-NSAID solution (the final concentrations of anti-tumor agent and NO-NSAID were shown in Table 8-1 to Table 8-4, and according to the solubility of NO-NSAID, the solvent of NO-NSAID solution was selected as ethanol or sterile water, and minor volume differences in each group were adjusted by added the corresponding solvent); • 4) Anti-tumor agent solvent group: an equal volume of DMSO as contained in the corresponding anti-tumor agent solution in Group 2) was added; • 5) NO-NSAID control group: the same volume and type of solvent (for example, ethanol or sterile water) corresponding to the NO-NSAID contained in group 3) was added.
The anti-tumor agent solvent group was not involved in data processing and was only used as a reference for evaluating experimental system error. The NO-NSAID solvent control group was used for data correction to eliminate the influence of the solvent on the results.
After culturing for 24-48 hours, the Cell Counting Kit-8 (CCK-8) detection kit (C0037, Shanghai Beyotime Biotechnology Co., Ltd., Beyotime Biotechnology) was used to determine the cell viability. This allows for the calculation of the proliferative toxicity of anti-tumor agent on cell and the mitigating effect of NO-NSAID on proliferative toxicity. The results were statistically analyzed and plotted using GraphPad Prism 6.0 software and t test.

[2] = test system: hand-foot syndrome caused by macromolecular anti-tumor agents; assay: Prevention of hand-foot syndrome caused by macromolecular protein inhibitors in rats (Table 3); format: in vivo
[3] = Bevacizumab, 5-FU combination, tail vein injection once a week, ointment 5% wt, Days 18
[4] = Ramucirumab combined with paclitaxel, intraperitoneal injection once a week, ointment 5% wt, Days 23

SMILES	Response rate % (average) ([1]; Afatinib (10 μM)) [%]	Response rate % (average) ([1]; Cabozantinib (5 μM)) [%]	Response rate % (average) ([1]; Dabrafenib (10 μM)) [%]	Response rate % (average) ([1]; Everolimus (5 μM)) [%]	Response rate % (average) ([1]; Infigratinib (15 μM)) [%]	Response rate % (average) ([1]; Lapatinib (5 μM)) [%]	Response rate % (average) ([1]; Lenvatinib (10 μM)) [%]	Response rate % (average) ([1]; Olmutinib (10 μM)) [%]	Response rate % (average) ([1]; Regorafenib (5 μM)) [%]	Response rate % (average) ([1]; Selumetinib (5 μM)) [%]	Response rate % (average) ([1]; Sorafenib (5 μM)) [%]	Response rate % (average) ([1]; Sunitinib (5 μM)) [%]	Control rate ([2]; Bevacizumab, 5-FU combination, tail vein injection once a week, ointment 2.50% wt, Days 18) [%]	Control rate [2, 3] [%]	Control rate ([2]; Ramucirumab combined with paclitaxel, intraperitoneal injection once a week, ointment 2.50% wt, Days 23) [%]	Control rate [2, 4] [%]	Control rate ([2]; Bevacizumab, 5-FU combination, tail vein injection once a week, ointment 1% wt, Days 18) [%]	Control rate ([2]; Ramucirumab combined with paclitaxel, intraperitoneal injection once a week, ointment 1% wt, Days 23) [%]
CC(C)Cc1ccc(C(C)C(=O)OCO/N=[N+](\[O-])N(C)C)cc1 (centres unmarked) [Compound A4]	34	24	2	−3	18	0	33	24	15	−2	29	11						
COc1ccc2cc(C(C)C(=O)OCCCCO[N+](=O)[O-])ccc2c1 (centres unmarked) [Compound A5]	36	32	8	10	17	22	25	38	−2	8	28	29	50.00	66.67	33.33	50.00		
CC(=O)Oc1ccccc1C(=O)Oc1cccc(CO[N+](=O)[O-])c1 [Compound A2]	24	22	22	8	21	−8	19	32	3	13	31	27		50.00		66.67	33.33	33.33
CC(C(=O)OCCCO[N+](=O)[O-])c1ccc(-c2ccccc2)c(F)c1 (centres unmarked) [Compound A1]	41	23	2	−2	1	12	38	40	22	15	22	9						
CC(=O)Oc1ccccc1C(=O)OCOC(=O)CCCCCO[N+](=O)[O-] [Compound A3]	27	8	4	−8	7	−4	18	35	12	16	30	14						
